pIC50, pKi: −log10 of the molar value.
How the values were obtained:
[1] = biological target: T1, Alpha-1A adrenergic receptor (Homo sapiens) (UniProt P35348); assay: Antagonist activity at human full-length N-terminal SNAP-tagged alpha1A adrenoceptor expressed in HEK293 cells assessed as inhibition of agonist-induced calcium mobilization at 10 uM preincubated for 10 mins followed by agonist addition by fluo-4 AM dye-based assay relative to control; assay type: functional, cell-based
T1 sequence (whole entry): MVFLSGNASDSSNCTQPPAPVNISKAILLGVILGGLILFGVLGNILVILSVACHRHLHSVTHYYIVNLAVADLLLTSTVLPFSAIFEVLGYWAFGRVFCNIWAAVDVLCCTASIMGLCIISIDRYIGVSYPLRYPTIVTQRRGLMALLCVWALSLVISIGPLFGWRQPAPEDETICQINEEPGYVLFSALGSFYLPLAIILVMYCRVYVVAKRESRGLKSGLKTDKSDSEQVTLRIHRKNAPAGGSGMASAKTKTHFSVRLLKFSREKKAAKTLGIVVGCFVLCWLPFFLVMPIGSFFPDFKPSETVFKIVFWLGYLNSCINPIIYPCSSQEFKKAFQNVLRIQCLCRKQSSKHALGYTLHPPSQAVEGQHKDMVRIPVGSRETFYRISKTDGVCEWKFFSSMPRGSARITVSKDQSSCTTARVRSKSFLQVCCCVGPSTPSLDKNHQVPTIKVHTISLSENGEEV

Homo sapiens [2] = species: Homo sapiens; assay: Selectivity ratio of IC50 for human full-length N-terminal SNAP-tagged alpha1B adrenoceptor to IC50 for human full-length N-terminal SNAP-tagged alpha1A adrenoceptor
Homo sapiens [3] = species: Homo sapiens; assay: Selectivity ratio of IC50 for human full-length N-terminal SNAP-tagged alpha1D adrenoceptor to IC50 for human full-length N-terminal SNAP-tagged alpha1A adrenoceptor
[4] = biological target: T2, Alpha-1A adrenergic receptor (Rattus norvegicus, UniProt P43140); assay: Antagonist activity at alpha1A adrenoceptor in Sprague-Dawley rat urethra assessed as inhibition of norepinephrine-induced smooth muscle contraction after 20 mins
T2 sequence (P43140 whole entry): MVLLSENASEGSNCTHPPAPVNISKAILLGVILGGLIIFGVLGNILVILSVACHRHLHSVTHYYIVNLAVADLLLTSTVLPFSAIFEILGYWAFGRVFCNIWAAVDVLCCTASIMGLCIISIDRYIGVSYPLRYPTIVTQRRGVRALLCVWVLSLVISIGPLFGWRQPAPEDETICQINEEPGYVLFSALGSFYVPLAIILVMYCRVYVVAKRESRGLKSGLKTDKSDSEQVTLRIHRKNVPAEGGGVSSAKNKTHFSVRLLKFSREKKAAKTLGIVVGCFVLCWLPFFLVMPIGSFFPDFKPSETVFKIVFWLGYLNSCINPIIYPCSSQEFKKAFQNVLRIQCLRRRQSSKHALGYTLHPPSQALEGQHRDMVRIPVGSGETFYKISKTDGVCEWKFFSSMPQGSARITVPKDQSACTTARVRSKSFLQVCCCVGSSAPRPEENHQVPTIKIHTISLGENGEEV

[5] = biological target: T3, Alpha-1B adrenergic receptor (Rattus norvegicus, UniProt P15823); assay: Antagonist activity at alpha1B adrenoceptor in Sprague-Dawley rat aorta assessed as inhibition of norepinephrine-induced smooth muscle contraction after 20 mins
T3 sequence (P15823 whole entry): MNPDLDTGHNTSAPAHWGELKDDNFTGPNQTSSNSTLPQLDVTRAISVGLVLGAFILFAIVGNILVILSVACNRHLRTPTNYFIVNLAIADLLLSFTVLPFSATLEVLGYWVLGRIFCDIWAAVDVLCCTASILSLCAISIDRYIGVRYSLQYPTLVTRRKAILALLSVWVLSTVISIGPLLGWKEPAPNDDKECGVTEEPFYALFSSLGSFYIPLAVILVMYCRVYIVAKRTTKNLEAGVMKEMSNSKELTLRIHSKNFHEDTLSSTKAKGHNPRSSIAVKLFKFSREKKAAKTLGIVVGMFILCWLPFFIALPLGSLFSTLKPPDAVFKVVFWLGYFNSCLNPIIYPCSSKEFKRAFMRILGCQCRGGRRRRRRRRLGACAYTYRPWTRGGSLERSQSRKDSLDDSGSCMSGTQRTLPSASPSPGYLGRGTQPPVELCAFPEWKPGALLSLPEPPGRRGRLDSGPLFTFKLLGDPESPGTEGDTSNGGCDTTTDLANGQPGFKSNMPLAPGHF

[6] = Selectivity ratio of IC50 for alpha1B adrenoceptor in Sprague-Dawley rat aorta to IC50 for alpha1A adrenoceptor in Sprague-Dawley rat urethra
Rattus norvegicus [7] = assay: Inhibition of micturition frequency in po dosed Sprague-Dawley rat benign prostatic hyperplasia model administered 20 mins followed by distilled watering loading measured for 2 hrs; assay type: functional; conditions: read-out: MED
Rattus norvegicus [8] = assay: Increase in voided volume in po dosed Sprague-Dawley rat benign prostatic hyperplasia model administered 20 mins followed by distilled watering loading measured for 2 hrs; assay type: functional; conditions: read-out: MED
[9] = biological target: Voltage-gated inwardly rectifying potassium channel KCNH2 (Homo sapiens, UniProt Q12809); assay: Inhibition of human ERG
Sequence of Voltage-gated inwardly rectifying potassium channel KCNH2 (Q12809 whole entry): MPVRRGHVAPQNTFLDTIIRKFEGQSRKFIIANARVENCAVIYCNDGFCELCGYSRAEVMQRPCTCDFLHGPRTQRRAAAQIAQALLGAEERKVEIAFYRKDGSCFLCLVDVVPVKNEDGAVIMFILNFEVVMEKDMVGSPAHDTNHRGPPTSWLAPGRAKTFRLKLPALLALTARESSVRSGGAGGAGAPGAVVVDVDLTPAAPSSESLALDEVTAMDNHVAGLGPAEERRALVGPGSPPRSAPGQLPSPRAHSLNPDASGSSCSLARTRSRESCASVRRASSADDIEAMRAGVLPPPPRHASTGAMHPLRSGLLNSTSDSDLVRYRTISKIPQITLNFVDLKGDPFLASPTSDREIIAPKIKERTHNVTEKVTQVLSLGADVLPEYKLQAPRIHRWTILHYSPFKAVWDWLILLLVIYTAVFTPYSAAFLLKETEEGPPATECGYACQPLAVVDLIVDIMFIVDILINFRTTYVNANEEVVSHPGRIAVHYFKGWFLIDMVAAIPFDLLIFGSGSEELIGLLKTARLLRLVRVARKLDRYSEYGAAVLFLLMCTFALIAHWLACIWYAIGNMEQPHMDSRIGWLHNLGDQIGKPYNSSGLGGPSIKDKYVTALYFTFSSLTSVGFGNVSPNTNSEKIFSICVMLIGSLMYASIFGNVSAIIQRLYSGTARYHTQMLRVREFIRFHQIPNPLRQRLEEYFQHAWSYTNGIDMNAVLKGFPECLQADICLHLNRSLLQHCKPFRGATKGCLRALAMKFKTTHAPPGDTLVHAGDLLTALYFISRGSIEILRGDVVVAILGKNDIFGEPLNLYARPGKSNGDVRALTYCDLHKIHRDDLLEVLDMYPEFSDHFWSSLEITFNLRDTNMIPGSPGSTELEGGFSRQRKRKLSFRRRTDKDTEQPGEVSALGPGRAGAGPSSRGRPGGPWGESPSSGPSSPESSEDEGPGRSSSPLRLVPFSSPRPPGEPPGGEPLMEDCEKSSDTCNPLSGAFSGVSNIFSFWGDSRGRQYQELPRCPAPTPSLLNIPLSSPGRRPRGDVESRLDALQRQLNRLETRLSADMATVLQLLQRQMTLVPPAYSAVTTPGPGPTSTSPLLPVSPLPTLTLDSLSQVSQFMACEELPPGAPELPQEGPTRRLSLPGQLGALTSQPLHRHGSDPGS

[10] = biological target: T4, Alpha-1A adrenergic receptor (Homo sapiens, UniProt P35348)
T4 sequence (P35348 whole entry): T1 sequence (whole entry)
Description: Antagonist activity at human full-length N-terminal SNAP-tagged alpha1A adrenoceptor expressed in HEK293 cells assessed as inhibition of agonist-induced calcium mobilization preincubated for 10 mins followed by agonist addition by fluo-4 AM dye-based assay

[11] = biological target: T5, Alpha-1B adrenergic receptor (Homo sapiens, UniProt P35368)
T5 sequence (P35368 whole entry): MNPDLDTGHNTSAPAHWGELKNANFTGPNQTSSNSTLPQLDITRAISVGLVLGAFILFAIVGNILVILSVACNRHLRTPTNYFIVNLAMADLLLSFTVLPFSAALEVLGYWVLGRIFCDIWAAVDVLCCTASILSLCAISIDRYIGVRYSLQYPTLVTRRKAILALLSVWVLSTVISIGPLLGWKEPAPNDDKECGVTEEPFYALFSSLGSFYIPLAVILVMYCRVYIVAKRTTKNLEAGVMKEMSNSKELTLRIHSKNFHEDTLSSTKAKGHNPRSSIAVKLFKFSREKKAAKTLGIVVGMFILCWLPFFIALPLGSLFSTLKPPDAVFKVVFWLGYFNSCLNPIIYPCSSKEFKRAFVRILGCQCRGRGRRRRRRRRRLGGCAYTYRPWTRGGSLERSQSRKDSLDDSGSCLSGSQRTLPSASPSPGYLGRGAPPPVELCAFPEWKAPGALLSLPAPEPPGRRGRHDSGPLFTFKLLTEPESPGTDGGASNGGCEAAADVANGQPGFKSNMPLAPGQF
Description: Antagonist activity at human full-length N-terminal SNAP-tagged alpha1B adrenoceptor expressed in HEK293 cells assessed as inhibition of agonist-induced calcium mobilization preincubated for 10 mins followed by agonist addition by fluo-4 AM dye-based assay

[12] = biological target: T6, Alpha-1D adrenergic receptor (Homo sapiens, UniProt P25100)
T6 sequence (P25100 whole entry): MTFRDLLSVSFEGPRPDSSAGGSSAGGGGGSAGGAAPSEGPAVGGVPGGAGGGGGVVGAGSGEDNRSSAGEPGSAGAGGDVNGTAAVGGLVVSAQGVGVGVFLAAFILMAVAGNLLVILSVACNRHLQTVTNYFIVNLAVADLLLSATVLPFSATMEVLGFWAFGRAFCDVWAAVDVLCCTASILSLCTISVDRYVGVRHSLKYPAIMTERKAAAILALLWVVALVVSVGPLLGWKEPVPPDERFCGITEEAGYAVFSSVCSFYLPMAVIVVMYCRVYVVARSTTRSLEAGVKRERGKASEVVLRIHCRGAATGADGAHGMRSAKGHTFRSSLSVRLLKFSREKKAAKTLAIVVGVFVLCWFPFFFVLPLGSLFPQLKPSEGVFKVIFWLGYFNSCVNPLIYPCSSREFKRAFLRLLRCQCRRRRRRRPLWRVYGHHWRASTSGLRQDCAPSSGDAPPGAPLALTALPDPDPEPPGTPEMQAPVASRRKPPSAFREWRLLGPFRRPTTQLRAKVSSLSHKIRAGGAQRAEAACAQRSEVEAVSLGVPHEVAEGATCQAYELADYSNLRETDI
Description: Antagonist activity at human full-length N-terminal SNAP-tagged alpha1D adrenoceptor expressed in HEK293 cells assessed as inhibition of agonist-induced calcium mobilization preincubated for 10 mins followed by agonist addition by fluo-4 AM dye-based assay

[13] = biological target: T2, Alpha-1A adrenergic receptor; assay: Displacement of [125I]-BE2254 from Wistar rat alpha1A adrenoceptor after 20 mins

| inhibition [1] [%] | pIC50 [10] | SMILES | further results |
| --- | --- | --- | --- |
| 99 | 7.75 | COc1ccc2[nH]c3c(c2c1)CC1c2cc4c(cc2CCN1C3)OCO4 (centres undefined) | Ratio IC50 (Homo sapiens [2]): > 568; Ratio IC50 (Homo sapiens [3]): 229; pIC50 [4]: 7.34; pIC50 [5]: < 6.00; Ratio IC50 [6]: >22.02; minimal effective dose (Rattus norvegicus [7]): 10 mg/kg; minimal effective dose (Rattus norvegicus [8]): 3 mg/kg; pIC50 [9]: 4.78; pIC50 [11]: < 5.00; pIC50 [12]: 5.39 |
| 82 | < 5.00 | CCC1c2[nH]c3ccccc3c2CC2c3cc4c(cc3CCN21)OCO4 (centres undefined) | – |
| 100 | 5.54 | c1ccc(COc2ccc3[nH]c4c(c3c2)CC2c3cc5c(cc3CCN2C4)OCO5)cc1 (centres undefined) | – |
| 100 | 6.60 | Fc1ccc2[nH]c3c(c2c1)CC1c2cc4c(cc2CCN1C3)OCO4 (centres undefined) | Ratio IC50 (Homo sapiens [2]): > 39.4; Ratio IC50 (Homo sapiens [3]): 33.1; pIC50 [11]: < 5.00; pIC50 [12]: 5.08 |
| 100 | 6.65 | CCCOc1cc2c(cc1OC)CCN1Cc3[nH]c4ccc(OC)cc4c3CC21 (centres undefined) | Ratio IC50 (Homo sapiens [2]): > 44.4; Ratio IC50 (Homo sapiens [3]): > 44.4; pIC50 [11]: < 5.00; pIC50 [12]: < 5.00 |
| – | 6.34 | c1c2c(cc3c1OCO3)CN1CCc3cc4c(cc3C1C2)OCO4 (centres undefined) | – |
| 0 | – | CC(C)CC1c2[nH]c3ccccc3c2CC2c3cc4c(cc3CCN21)OCO4 (centres undefined) | – |
| 0 | – | COc1ccc(C2c3[nH]c4ccccc4c3CC3c4cc5c(cc4CCN32)OCO5)cc1 (centres undefined) | – |
| 100 | 6.26 | COc1ccc2c(c1)CCN1Cc3[nH]c4ccccc4c3CC21 (centres undefined) | – |
| 100 | 5.69 | Fc1ccc2c3c([nH]c2c1)CN1CCc2cc4c(cc2C1C3)OCO4 (centres undefined) | – |
| 56 | – | COc1ccc2[nH]c3c(c2c1)CC1c2cc(O)c(OC)cc2CCN1C3 (centres undefined) | – |
| 0 | – | Fc1ccc(C2c3[nH]c4ccccc4c3CC3c4cc5c(cc4CCN32)OCO5)cc1 (centres undefined) | – |
| 17 | – | CCOc1cc2c(cc1OC)C1Cc3c([nH]c4ccc(OC)cc34)CN1CC2 (centres undefined) | – |
| 99 | 7.24 | c1ccc2c3c([nH]c2c1)CN1CCc2cc4c(cc2[C@@H]1C3)OCO4 | Ratio IC50 (Homo sapiens [2]): > 174; Ratio IC50 (Homo sapiens [3]): > 174; pIC50 [11]: < 5.00; pIC50 [12]: < 5.00 |
| 100 | 6.23 | COc1ccc2c3c([nH]c2c1)CN1CCc2cc4c(cc2C1C3)OCO4 (centres undefined) | Ratio IC50 (Homo sapiens [2]): > 16.8; Ratio IC50 (Homo sapiens [3]): > 16.8; pIC50 [11]: < 5.00; pIC50 [12]: < 5.00 |
| 100 | 5.50 | COc1ccc2[nH]c3c(c2c1)C[C@@H]1c2cc4c(cc2CCN1C3)OCO4 | – |
| 75 | – | CCOc1cc2c(cc1OC)CCN1Cc3[nH]c4ccc(OC)cc4c3CC21 (centres undefined) | – |
| 60 | – | COc1cc2c(cc1OC)C1Cc3c([nH]c4ccccc34)CN1CC2 (centres undefined) | – |
| 0 | – | COc1ccc2[nH]c3c(c2c1)CC1c2cc(OC)c(O)cc2CCN1C3 (centres undefined) | – |
| 100 | 6.90 | c1ccc2c3c([nH]c2c1)CN1CCc2cc4c(cc2C1C3)OCO4 (centres undefined) | Ratio IC50 (Homo sapiens [2]): > 80; Ratio IC50 (Homo sapiens [3]): > 80; pIC50 [11]: < 5.00; pIC50 [12]: < 5.00 |
| 21 | – | CCCOc1cc2c(cc1OC)C1Cc3c([nH]c4ccc(OC)cc34)CN1CC2 (centres undefined) | – |
| 100 | 6.69 | COc1cccc2[nH]c3c(c12)CC1c2cc4c(cc2CCN1C3)OCO4 (centres undefined) | Ratio IC50 (Homo sapiens [2]): > 19.4; Ratio IC50 (Homo sapiens [3]): > 19.4; pIC50 [11]: < 5.00; pIC50 [12]: < 5.00 |

Further lines, the compound ahead of its results:

| SMILES | inhibition [1] [%] | pIC50 [10] | further results |
| --- | --- | --- | --- |
| CCCCOc1cc2c(cc1OC)CCN1Cc3[nH]c4ccc(OC)cc4c3CC21 (centres undefined) | 98 | 5.64 | – |
| COc1ccc2c(c1)CCN1C(C)c3[nH]c4ccccc4c3CC21 (centres undefined) | 90 | 5.06 | – |
| COc1cc2c(cc1O)[C@@H]1Cc3ccc(O)c(OC)c3CN1CC2 [STEPHOLIDINE] | – | – | pKi [13]: 5.65 |
| COc1cc2c(cc1OC)C1Cc3c([nH]c4ccccc34)C(c3ccc(F)cc3)N1CC2 (centres undefined) | 0 | – | – |
| COc1cc2c(cc1OC)C1Cc3c([nH]c4ccccc34)C(CC(C)C)N1CC2 (centres undefined) | 72 | – | – |
| COc1cc2c(cc1O)[C@@H]1Cc3c(Cl)cc(OC)c(O)c3CN1CC2 | – | – | pKi [13]: 5.86 |
| COc1ccc(C2c3[nH]c4ccccc4c3CC3c4ccc(OC)cc4CCN32)cc1 (centres undefined) | 80 | < 5.00 | – |
| COc1ccc2c(c1OC)CN1CCc3cc4c(cc3C1C2)OCO4 (centres undefined) [TETRAHYDROBERBERINE] | – | – | pKi [13]: 5.95 |
| CCOc1ccccc1OCCN[C@H](C)Cc1ccc(OC)c(S(N)(=O)=O)c1 [TAMSULOSIN] | 100 | – | pIC50 [11]: 8.32; pIC50 [12]: 8.85 |
| COc1ccc(C2c3[nH]c4ccccc4c3CC3c4cc(OC)c(OC)cc4CCN32)cc1 (centres undefined) | 21 | – | – |
| COc1cc2c(cc1OC)C1Cc3c([nH]c4ccccc34)C(c3ccccc3)N1CC2 (centres undefined) | 0 | – | – |
| COc1ccc2c(c1OC)CN1CCc3cc4c(cc3[C@@H]1C2)OCO4 [CANADINE] | – | 5.27 | – |
| COc1cc2c(cc1OC)[C@@H]1Cc3ccc(OC)c(OC)c3CN1CC2 | 41.2 | – | – |
| COc1cc2cc[n+]3c(c2cc1OC)Cc1ccc(OC)c(OC)c1C3 | – | 5.12 | – |
| CCCCOc1cc2c(cc1OC)C1Cc3c([nH]c4ccc(OC)cc34)CN1CC2 (centres undefined) | 63 | – | – |
| COc1ccc2c(c1)CCN1C2Cc2c([nH]c3ccccc23)C1C1CC1 (centres undefined) | 31 | – | – |
